Laboratory results from PMC9151520 (Archives of Toxicology, 2022).
Several values for one entry are separate records, joined by “and”; a condition that tells them apart may be missing. Equal values may be shown once. Read-outs that look alike come from different tables or passages of the source.

Legend:
[1] = system: p53 signaling (p53RE-bla HCT-116 cells); assay: cells; format: cell-based
[2] = system: p53 signaling (p53RE-bla HCT-116 cells); conditions: for EC50: read-out: p53 activation EC50
[3] = system: p53 signaling (p53RE-bla HCT-116 cells)
[4] = system: p53 signaling (p53RE-bla HCT-116 cells); assay: cells; conditions: Homo sapiens
[5] = system: p53 signaling (p53RE-bla HCT-116 cells); assay: cells; format: cell-based; remark: listed apart in the source
[6] = system: p53 signaling (p53RE-bla HCT-116 cells); assay: cells; format: cell-based
[7] = system: p53 signaling (p53RE-bla HCT-116 cells); assay: cells; conditions: Homo sapiens; remark: listed apart in the source
[8] = HCT-116, read-out: p53 activation efficacy
[9] = Homo sapiens, HCT-116, read-out: efficacy
[10] = HCT-116, read-out: p53 activation EC50, cherry pick confirmation
[11] = HCT-116, read-out: p53 activation EC50, primary screening
[12] = HCT-116, read-out: p53 activation efficacy, cherry pick confirmation
[13] = HCT-116, read-out: p53 activation efficacy, primary screening

Row | SMILES | p53 activation efficacy [1] | p53 activation efficacy [2] | EC50 [2] | p53 activation EC50 [3] | Viability EC50 (p53RE-bla HCT-116 cells) | Viability efficacy (p53RE-bla HCT-116 cells) | EC50 ([5]; Homo sapiens, HCT-116, 0.5 h) | EC50 ([6]; Homo sapiens, HCT-116) | EC50 ([7]; HCT-116) | Emax ([7]; HCT-116, read-out: efficacy) | p53 activation EC50, primary screening [1] | p53 activation efficacy, primary screening [1] | p53 activation EC50, cherry pick confirmation [3] | p53 activation efficacy, cherry pick confirmation [3] | Viability EC50, cherry pick confirmation (p53RE-bla HCT-116 cells) | Viability EC50, primary screening (p53RE-bla HCT-116 cells) | Viability efficacy, cherry pick confirmation (p53RE-bla HCT-116 cells) | Viability efficacy, primary screening (p53RE-bla HCT-116 cells) | EC50 [7, 10] | Emax [7, 12] | also measured
1 | Nc1ccc2c(O)cc(S(=O)(=O)O)cc2c1 | 61.5673 and 83.6027 | 57.1256 and 31.0337 | 10.9 µM | inactive | inactive | inactive | – | – | – | – | – | – | – | – | – | – | – | – | – | – | Emax [4, 8]: 27%
2 | Oc1c(Cl)c(Cl)cc(Cl)c1Cl [2,3,5,6-Tetrachlorophenol] | – | – | – | – | – | – | – | – | – | – | – | – | – | – | – | – | – | – | – | – | EC50 ([1]; Homo sapiens, HCT-116, read-out: EC50, p53 activation, cherry pick confirmation): 29.5 µM; EC50 ([1]; Homo sapiens, HCT-116, read-out: EC50, p53 activation, primary screening): 24.6 µM; Emax ([1]; Homo sapiens, HCT-116, read-out: Efficacy, p53 activation, cherry pick confirmation): 31.3%; Emax ([1]; Homo sapiens, HCT-116, read-out: Efficacy, p53 activation, primary screening): 36.3%; EC50, p53 activation, cherry pick confirmation [2]: inactive; EC50, p53 activation, primary screening [2]: inactive; Efficacy, p53 activation, cherry pick confirmation [2]: inactive; Efficacy, p53 activation, primary screening [2]: inactive; EC50, p53 activation, cherry pick confirmation [3]: inactive; Efficacy, p53 activation, cherry pick confirmation [3]: inactive; EC50, viability, cherry pick confirmation (p53RE-bla HCT-116 cells): inactive; EC50, viability, primary screening (p53RE-bla HCT-116 cells): inactive; Efficacy, viability, cherry pick confirmation (p53RE-bla HCT-116 cells): inactive; Efficacy, viability, primary screening (p53RE-bla HCT-116 cells): inactive; EC50 ([4]; HCT-116, read-out: EC50, p53 activation, primary screening): 21 µM; Emax ([4]; HCT-116, read-out: Efficacy, p53 activation, primary screening): 35.1%
3 | Nc1ccc(-c2ccc(N)c(Cl)c2)cc1Cl [3,3'-Dichlorobenzidine] | – | inactive | – | inactive | inactive | inactive | – | – | – | – | – | – | – | – | – | – | – | – | – | – | EC50 ([1]; read-out: p53 activation EC50): 16.4 µM; p53 activation EC50 [2]: inactive; Emax [4, 8]: 33.9%
4 | c1ccc2cc3c(cc2c1)-c1cccc2cccc-3c12 [Benzo(k)fluoranthene] | – | – | – | – | – | – | 10.4 µM | 32.9 µM | 37 µM | 565% | – | – | – | – | – | – | – | – | – | – | p53 activation Efficacy, No MS [1]: 189.362% and 164.004%; EC50 ([1]; Homo sapiens, HCT-116, read-out: p53 activation EC50, No MS): 8.42 µM; EC50 ([1]; read-out: p53 activation EC50, No MS): 12.2 µM; Viability EC50, HLM (p53RE-bla HCT-116 cells): inactive; Viability EC50, No MS (p53RE-bla HCT-116 cells): inactive; Viability EC50, RLM (p53RE-bla HCT-116 cells): inactive; Viability Efficacy, HLM (p53RE-bla HCT-116 cells): inactive; Viability Efficacy, No MS (p53RE-bla HCT-116 cells): inactive; Viability Efficacy, RLM (p53RE-bla HCT-116 cells): inactive
5 | COP(=S)(OC)Oc1cc(Cl)c(Br)cc1Cl [Bromofos] | inactive | 62.741 | 15.1 µM | inactive | inactive | inactive | 16.2 µM | – | 17.8 µM | 66.6% | – | – | – | – | – | – | – | – | – | – | p53 activation EC50 [1]: inactive; Emax [5, 9]: 40.6%; EC50 [6]: Inactive
6 | COP(=S)(OC)Oc1nc(Cl)c(Cl)cc1Cl [Chlorpyrifos-methyl] | – | – | – | – | – | – | 1.78 µM | 24 µM | 15.5 µM | 45% | inactive | inactive | inactive | inactive | inactive | inactive | inactive | inactive | 21.6 µM | 62.8% | p53 activation EC50, cherry pick confirmation [1]: inactive; p53 activation efficacy, cherry pick confirmation [1]: inactive; p53 activation EC50, primary screening [3]: inactive; p53 activation efficacy, primary screening [3]: inactive; EC50 [7, 11]: 11 µM; Emax [7, 13]: 36.2%
7 | COP(=O)(OC)O/C(C)=C/C(=O)N(C)C [Dicrotophos] | inactive | 47.1617 | 14.3 µM | inactive | inactive | inactive | 11.5 µM | 9.07 µM | 11.4 µM | 40.6% | – | – | – | – | – | – | – | – | – | – | p53 activation EC50 [1]: inactive
8 | Cc1cc(OC(=O)N(C)C)nn1C(=O)N(C)C [Dimetilan] | – | – | – | – | – | – | – | 5.11 µM | 5.44 µM | 34.6% | inactive | inactive | inactive | inactive | inactive | inactive | inactive | inactive | 6.19 µM | 33.8% | p53 activation EC50, cherry pick confirmation [1]: inactive; p53 activation efficacy, cherry pick confirmation [1]: inactive; EC50 [5]: Inactive; Emax [6, 9]: 43.6%
9 | CCOP(=S)(OCC)SCSP(=S)(OCC)OCC [Ethion] | inactive | 48.0253 | 2.04 µM | inactive | inactive | inactive | 5.91 µM | 3.29 µM | 6.2 µM | 53.8% | – | – | – | – | – | – | – | – | – | – | p53 activation EC50 [1]: inactive
10 | COP(=S)(OC)Oc1ccc([N+](=O)[O-])c(C)c1 [Fenitrothion] | – | – | – | – | – | – | 4.18 µM | 10.4 µM | 9.91 µM | 116% | inactive | inactive | inactive | inactive | inactive | inactive | inactive | inactive | 9.34 µM | 93.3% | p53 activation EC50, cherry pick confirmation [1]: inactive; p53 activation efficacy, cherry pick confirmation [1]: inactive; p53 activation EC50, primary screening [3]: inactive; p53 activation efficacy, primary screening [3]: inactive; EC50 [7, 11]: 2.58 µM; Emax [7, 13]: 59.9%
11 | COP(N)(=S)Oc1ccccc1C(=O)OC(C)C (stereo not shown) [Isocarbophos] | – | – | – | – | – | – | 25.6 µM | 1.86 µM | 4.93 µM | 83.1% | inactive | inactive | inactive | inactive | inactive | inactive | inactive | inactive | 3.72 µM | 78.7% | EC50 ([1]; Homo sapiens, HCT-116, read-out: p53 activation EC50, cherry pick confirmation): 2.05 µM; Emax ([1]; Homo sapiens, HCT-116, read-out: p53 activation efficacy, cherry pick confirmation): 32.4%
12 | COP(=O)(OC)OC(=CCl)c1cc(Cl)c(Cl)cc1Cl [Tetrachlorovinphos] | – | – | – | – | – | – | – | – | – | – | – | – | – | – | – | – | – | – | – | – | p53 activation EC50, No MS [1]: inactive; p53 activation Efficacy, No MS [1]: inactive; p53 activation EC50, HLM [3]: inactive; Viability EC50, HLM (p53RE-bla HCT-116 cells): inactive; Viability EC50, No MS (p53RE-bla HCT-116 cells): inactive; Viability EC50, RLM (p53RE-bla HCT-116 cells): inactive; Viability Efficacy, HLM (p53RE-bla HCT-116 cells): inactive; Viability Efficacy, No MS (p53RE-bla HCT-116 cells): inactive; Viability Efficacy, RLM (p53RE-bla HCT-116 cells): inactive; EC50 ([4]; HCT-116, read-out: p53 activation EC50, HLM): 16.4 µM
